# Read-outs that look alike come from different tables or passages of the source.
# How the values were obtained:
# [1] = tested on: Rotavirus: Simian Rotavirus SA-11; test: microbe, parasite or virus in culture; assay type: cell-based; settings: Simian rotavirus SA-11, MA104 cell culture
# [2] = tested on: clostridia; test: organism not typed; assay type: cell-based; settings: Clostridia (18 isolates), agar dilution, 48 h
# [3] = Cytotoxicity in AVA5 cells (neutral red dye uptake); assay type: cell-based, human; settings: human, 2-fold depression of neutral red dye uptake
# Protocol: (§1) Anti-Hepatitis C Virus (HCV) analyses and an assessment of cytotoxicity were performed in a 3-day assay in the HCV replicon-containing human hepatoblastoma cell line, AVA5 (Okuse, C., Rinaudo, J. A., Farrar, K., Wells, F. & Korba, B. E. Enhancement of antiviral activity against hepatitis C virus in vitro by interferon combination therapy. Antivir. Res. 65, 23-34 (2005)) as previously described (Blight, K. J., Kolykhalov, A. A. & Rice, C. M. Efficient initiation of HCV RNA replication in cell culture. Science 290, 1972-1974 (2000)).
# (§2) Values presented (±standard deviations [S.D.]) were calculated by linear regression analysis using data combined from all treated cultures. S.D. were calculated using the standard error of regression generated from the linear regression analyses (QuattroPro™). EC50, EC90=drug concentration at which a 2-fold, or a 10-fold depression of HCV RNA (relative to the average levels in untreated cultures), respectively, was observed. CC50=drug concentration at which a 2-fold depression of neutral red dye uptake was observed relative to the average levels in untreated cultures. Selectivity index=CC50/EC50.
# [4] = tested on: anaerobic Gram positive cocci; test: CLSI agar dilution MIC, anaerobic clinical isolates; assay type: cell-based; settings: Gram + cocci (16 isolates), 48 h
# [5] = tested on: fusobacteria; test: as above; assay type: cell-based; settings: Fusobacteria (28 isolates), 48 h
# Protocol: (§3) Methods. Recent clinical anaerobic isolates (2000 to date) comprised 40 B. fragilis group, 26 Prevotella/Porphyromonas, 28 fusobacteria, 16 anaerobic Gram positive cocci, 14 anaerobic Gram-positive non-sporeforming rods and 18 clostridia. CLSI agar dilution MIC methodology with enriched Brucella blood agar and inocula of 1×10^5 cfu/spot was used. Plates were incubated in an anaerobic glove box at 35° C. for 48 h. Results.
# [6] = tested on: Prevotella/Porphyromonas; test: as above; assay type: cell-based; settings: Prev/Porphy (26 isolates), 48 h
# Protocol: as §3
# [7] = tested on: B. fragilis group; test: as above; assay type: cell-based; settings: Bacteroides fragilis, B. fragilis gp (40 isolates), 48 h, 35° C.
# Protocol: as §3
# [8] = tested on: hepatitis C virus (HCV) replicon; test: HCV replication in AVA5 replicon cell culture, 3-day assay; assay type: cell-based; settings: AVA5 cells
# Protocol: as §1, §2
# [9] = tested on: anaerobic Gram-positive non-sporeforming rods; test: CLSI agar dilution MIC, anaerobic clinical isolates; assay type: cell-based; settings: Gram + rods (14 isolates), 48 h
# [10] = tested on: Coronavirus: canine coronavirus strain S-378; test: microbe, parasite or virus in culture; assay type: cell-based; settings: canine coronavirus strain S-378, A72 cell culture
# [11] = tested on: Herpes Simplex type 1: strain F1; test: microbe, parasite or virus in culture; assay type: cell-based, Herpes Simplex virus type 1; settings: Herpes Simplex type 1 strain F1, HEp-2 cell culture
# [12] = tested on: Paramyxovirus: Sendai virus; test: microbe, parasite or virus in culture; assay type: cell-based; settings: Sendai virus, 37RC cell culture (Table 1)
# [13] = tested on: anaerobic bacteria (all 142 isolates); test: CLSI agar dilution MIC, all anaerobic clinical isolates; assay type: cell-based
# [14] = tested on: Hepatitis B Virus (HBV); test: HBV replication in 2.2.15 cell culture, 9-day assay; assay type: cell-based; settings: for EC50 / EC90: Hepatitis B virus, 2.2.15 cells
# Protocol: (§4) Anti-Hepatitis B Virus (HBV) analyses and an assessment of cytotoxicity were performed in a 9-day assay in the chronically-producing HBV human hepatoblastoma cell line, 2.2.15, as previously described (Korba, B. E. & Gerin, J. L. Use of a standardized cell culture assay to assess activities of nucleosides analogues against hepatitis B virus replication. Antivir. Res. 19, 55-70 (1992)).
# (§5) Values presented (±standard deviations [S.D.]) were calculated by linear regression analysis using data combined from all treated cultures. S.D. were calculated using the standard error of regression generated from linear regression analyses (QuattroPro™). EC50, EC90=drug concentration at which a 2-fold, or a 10-fold depression of HBV DNA (relative to the average levels in untreated cultures), respectively, was observed, CC50=drug concentration at which a 2-fold depression of neutral red dye uptake (relative to the average levels in untreated cultures) was observed, The EC90 values were used for the calculation of the Selectivity Indexes [S.I.] since at least a 3-fold depression of HBV levels is typically required to achieve statistical significance in this assay system. HBV R.I.=intracellular HBV DNA replication intermediate.
# [15] = tested on: Trichomonas vaginalis; test: Antiparasite test by conventional means; assay type: cell-based; settings: at concentrations of at least 50 μg/mL
# Protocol: (§6) The above identified compounds according to Formula (IV) were tested by conventional means against Trichomis vaginalis, Giardia Intestinalis, and Trypanosoma brucei.
# [16] = tested on: Trypanosoma brucei; test: Antiparasite test by conventional means; assay type: cell-based; settings: at concentrations of at least 50 μg/mL
# Protocol: as §6
# [17] = tested on: Giardia intestinalis; test: Antiparasite test by conventional means; assay type: cell-based; settings: at concentrations of at least 50 μg/mL
# Protocol: as §6
# [18] = tested on: Influenza A: PR8 strain; test: microbe, parasite or virus in culture; assay type: cell-based, Influenza A virus
# [19] = Cytotoxicity in 2.2.15 cells (neutral red dye uptake); assay type: cell-based; settings: human, 2-fold depression of neutral red dye uptake
# Protocol: as §4, §5
# [20] = tested on: Rhabdovirus: Vesicular stomatitis virus; test: microbe, parasite or virus in culture; assay type: cell-based
# [21] = All (142 isolates), agar dilution, 48 h
structure (smiles),measurement,setting,value
"CC(=O)Oc1c(C)cccc1C(=O)Nc1ncc(Br)s1 [RM-4803, 2-(acetolyloxy)-3-methyl-N-(5-bromo-2-thiazolyl)benzamide]",EC50,[1]; Rotavirus A,60 nM
same,SI (selectivity index) = CC50/EC50,[1]; CC50 by MTT,> 2500
same,MIC50,[2]; read-out: MIC50,> 32 µg/mL
same,MIC90,[2]; read-out: MIC90,> 32 µg/mL
same,CC50 at 3 day,[3],282 ± 21 µM
same,MIC50,[4],> 32 µg/mL
same,MIC90,[4],> 32 µg/mL
same,MIC50,[5],> 32 µg/mL
same,MIC90,[5],> 32 µg/mL
same,MIC50,[6],> 32 µg/mL
same,MIC90,[6],> 32 µg/mL
same,MIC50,[7],> 32 µg/mL
same,MIC90,[7],> 32 µg/mL
same,Selectivity Index,[8]; CC50/EC50,7.6
same,EC50,"[8]; Hepatitis C virus, 2-fold depression of HCV RNA, read-out: EC50",37 ± 2.7 µM
same,EC90,"[8]; Hepatitis C virus, 10-fold depression of HCV RNA, read-out: EC90",98 ± 9.3 µM
same,MIC50,[9],> 32 µg/mL
same,MIC90,[9],> 32 µg/mL
same,EC50,"[10]; Alphacoronavirus 1, A-72",4.2 µM
same,SI (selectivity index) = CC50/EC50,[10]; CC50 by MTT,13
same,SI (selectivity index) = CC50/EC50,[11]; CC50 by MTT,3
same,EC50,[11]; Human alphaherpesvirus 1,5.6 µM
same,EC50,[12]; Respirovirus muris,1100 nM
same,SI (selectivity index) = CC50/EC50,[12]; CC50 by MTT,> 125
same,MIC50,[13]; [21],> 32 µg/mL
same,MIC90,[13]; [21],> 32 µg/mL
same,Activity against anaerobic bacteria groups (summary in words),[13]; summary of MIC results,without significant activity
same,EC50,"[14]; 2-fold depression of HBV DNA, read-out: Extracellular Virion DNA EC50",6.3 ± 0.7 µM
same,EC90,"[14]; 10-fold depression of HBV DNA, read-out: Extracellular Virion DNA EC90",15 ± 1.1 µM
same,EC50,"[14]; intracellular HBV DNA replication intermediate, 2-fold depression, read-out: Intracellular HBV R.I. EC50",12 ± 1.5 µM
same,EC90,"[14]; intracellular HBV DNA replication intermediate, 10-fold depression, read-out: Intracellular HBV R.I. EC90",50 ± 5.5 µM
same,Selectivity Index R.I.,"[14]; calculated with EC90 values (CC50/EC90), HBV R.I.",>20
same,Selectivity Index Virion,"[14]; calculated with EC90 values (CC50/EC90), virion DNA",>67
same,antiparasite activity,[15],failed to exhibit antiparasite activitity
same,antiparasite activity,[16],failed to exhibit antiparasite activitity
same,antiparasite activity,[17],failed to exhibit antiparasite activitity
same,SI (selectivity index) = CC50/EC50,"[18]; Influenza A PR8 strain, MDCK cell culture, CC50 by MTT",> 50
same,EC50,"[18]; Influenza A virus, PR8, MDCK",2800 nM
same,CC50 at 9 day,[19],> 1 mM
same,EC50,[20]; MA104,2800 nM
same,SI (selectivity index) = CC50/EC50,"[20]; MA104 cell culture, CC50 by MTT",> 50
